According to US8183296B2, “Pesticide phenyloxy substituted phenylamidine derivatives” (Bayer Cropscience AG, priority 2005, dated 2012):

What was measured:
[1] = logP by HPLC on reversed-phase column (C 18), EEC Directive 79/831 Annex V.A8; format: physicochemical; details: C 18, 40° C., 0.1% aqueous formic acid and acetonitrile; for chromatographic logP: reversed-phase HPLC column (C 18), read-out: logPa
Protocol: Temperature: 40° C.; Mobile phases: 0.1% aqueous formic acid and acetonitrile; linear gradient from 10% acetonitrile to 90% acetonitrile.
Calibration was carried out using unbranched alkan-2-ones (comprising 3 to 16 carbon atoms) with known logP values (determination of the logP values by the retention times using linear interpolation between two successive alkanones).

[2] = tested on: Puccinia recondita f. Sp. tritici; assay: In vivo preventive test on Puccinia recondita f. Sp. tritici (wheat brown rust); details: topical, 240 h, 1000 ppm of active ingredient, evaluated 10 days after inoculation, read-out: efficacy
Protocol: In Vivo Preventive Test on Puccinia recondita f. Sp. tritici (Wheat Brown Rust)
(§1) To produce a suitable preparation of active compound, 1 part by weight of active compound is mixed with the stated amounts of solvent and emulsifier, and the concentrate is diluted with water to the desired concentration.
To test for preventive activity, young plants are […]. After the spray coating has dried on, the plants are sprayed with the preparation of active compound at the stated rate of application. The plants remain for 24 hours in an incubation cabinet at 20° C. and a relative atmospheric humidity of 100%.
The plants are placed in a greenhouse at a temperature of approximately 20° C. and a relative atmospheric humidity of approximately 80% to promote the development of rust pustules.
The test is evaluated 10 days after the inoculation. 0% means an efficacy which corresponds to that of the control, while an efficacy of 100% means that no disease is observed.

[3] = tested on: Erysiphe graminis f.sp. hordei; assay: In vivo preventive test on Erysiphe graminis (powdery mildew on barley); details: Blumeria graminis, topical, 168 h, 1000 ppm of active ingredient, evaluated 7 days after inoculation, read-out: efficacy
Protocol: In Vivo Preventive Test on Erysiphe gramini (Powdery Mildew on Barley)
To produce a suitable preparation of active compound, 1 part by weight of active compound or active compound combination is mixed with the stated amounts of solvent and emulsifier, and the concentrate is diluted with water to the desired concentration.
To test for preventive activity, young plants are sprayed with the preparation of active compound or active compound combination at the stated rate of application.
After the spray coating has dried on, the plants are dusted with spores of Erysiphe graminis f.sp. hordei
The plants are placed in a greenhouse at a temperature of approximately 20° C. and a relative atmospheric humidity of approximately 80% to promote the development of mildew pustules.
(§2) The test is evaluated 7 days after the inoculation. 0% means an efficacy which corresponds to that of the control, while an efficacy of 100% means that no disease is observed.

Alternaria solani = assay: In vivo protective test on Alternaria solani (leaf spot of tomato); details: topical, 168 h, 500 ppm of active ingredient, evaluated 7 days after inoculation, read-out: efficacy
Protocol: In Vivo Protective Test on Alternaria solani (Leaf Spot of Tomato)
as §1
To test for protective activity, young plants are sprayed with the preparation of active compound at the stated rate of application. After the spray coating has dried on, the plants are inoculated with an aqueous spore suspension of Alternatia solani. The plants remain for one day in an incubation cabinet at approximately 20° C. and a relative atmospheric humidity of 100%. Then the plants are placed in an incubation cabinet at approximately 20° C. and a relative atmospheric humidity of 96%.
The test is evaluated 7 days after the inoculation. 0% means an efficacy which corresponds to that of the control while an efficacy of 100% means that no disease is observed.

Podosphaera leucotricha = assay: In vivo protective test on Podosphaera leucotricha (apples); details: topical, 240 h, 100 ppm of active ingredient, evaluated 10 days after inoculation, read-out: efficacy
Excerpt: In Vivo Protective Test on Podosphaera leucotricha (Apples) [table] […] To test for protective activity, young plants are sprayed with the preparation of active compound at the stated rate of application. After the spray coating has dried on, the plants are inoculated with an aqueous spore suspension of the causal agent of apple mildew (Podosphaera leucotricha).

Sphaerotheca fuliginea = assay: In vivo protective test on Sphaerotheca fuliginea (cucumbers); details: Podosphaera fuliginea, topical, 168 h, 100 ppm of active ingredient, evaluated 7 days after inoculation, read-out: efficacy
Protocol: In Vivo Protective Test on Sahaerotheca fuliginea (Cucumbers)
as §1
To test for protect activity, young plants are sprayed with the preparation of active compound at the stated rate of application. After the spray coating has dried on, the plants are inoculated with an aqueous spore suspension of Sphaerotheca fuliginea. The plants are then placed in a greenhouse at approximately 23° C. and a relative atmospheric humidity of approximately 70%.
as §2

SMILES | logPa [1] | chromatographic logP [1] | pest or weed control at 1000 ppm [2] [%] | further results
Cc1cc(Oc2cc(Cl)c(/N=C/N3CCCCC3C)cc2C)ccc1Cl (racemic) [Example 52] | 2.80 |  |  | 
Cc1cc(/N=C/N2CCCCC2C)c(Cl)cc1Oc1ccc(Cl)c(C(C)(C)C)c1 (racemic) [Example 54] | 3.33 |  |  | 
Cc1cc(/N=C/N2CCCCC2C)c(Cl)cc1Oc1ccc(Cl)c(C(C)C)c1 (racemic) [Example 62] | 3.07 |  |  | 
CCN(C)/C=N/c1cc(C)c(Oc2ccc(Cl)c(C)c2)cc1C [Example 4] |  | 2.31 |  | 
CCc1cc(Oc2cc(C)c(/N=C/N(C)CC)cc2C)ccc1Cl [Example 5] |  | 2.56 | ≥ 70 | pest or weed control at 1000 ppm [3]: ≥ 70%; pest or weed control at 500 ppm (Alternaria solani): ≥ 70%; pest or weed control at 100 ppm (Podosphaera leucotricha): ≥ 70%; pest or weed control at 100 ppm (Sphaerotheca fuliginea): ≥ 70%
Cc1cc(Oc2ccc(Cl)c(C(C)(C)C)c2)c(C)cc1/N=C/N(C)C1CC1 [Example 7] | 2.21 |  |  | 
CCCN(C)/C=N/c1cc(C)c(Oc2ccc(Cl)c(C(C)(C)C)c2)cc1C [Example 8] |  | 3.3 | ≥ 70 | pest or weed control at 1000 ppm [3]: ≥ 70%; pest or weed control at 500 ppm (Alternaria solani): ≥ 70%; pest or weed control at 100 ppm (Podosphaera leucotricha): ≥ 70%; pest or weed control at 100 ppm (Sphaerotheca fuliginea): ≥ 70%
CCN(C)/C(S)=N/c1cc(C)c(Oc2ccc(Cl)c(C(C)(C)C)c2)cc1C [Example 10] |  | 5.12 |  | pest or weed control at 1000 ppm [3]: ≥ 70%; pest or weed control at 500 ppm (Alternaria solani): ≥ 70%; pest or weed control at 100 ppm (Podosphaera leucotricha): ≥ 70%; pest or weed control at 100 ppm (Sphaerotheca fuliginea): ≥ 70%
CCCN(C)/C=N/c1cc(Cl)c(Oc2ccc(Cl)c(CC)c2)cc1C [Example 11] |  | 2.84 | ≥ 70 | pest or weed control at 1000 ppm [3]: ≥ 70%; pest or weed control at 100 ppm (Podosphaera leucotricha): ≥ 70%; pest or weed control at 100 ppm (Sphaerotheca fuliginea): ≥ 70%
CCc1cc(Oc2cc(C)c(/N=C/N(C)C3CC3)cc2Cl)ccc1Cl [Example 12] | 2.89 |  |  | 
CCc1cc(Oc2cc(C)c(/N=C/N(C)C3CC3)cc2C)ccc1Cl [Example 15] | 2.71 |  |  | 
Cc1cc(Oc2cc(C)c(/N=C/N(C)C(C)C)cc2C)ccc1Cl [Example 16] |  | 2.4 | ≥ 70 | pest or weed control at 1000 ppm [3]: ≥ 70%; pest or weed control at 500 ppm (Alternaria solani): ≥ 70%; pest or weed control at 100 ppm (Podosphaera leucotricha): ≥ 70%
Cc1cc(Oc2ccc(Cl)c(C(C)C)c2)c(Cl)cc1/N=C/N(C)C1CC1 [Example 23] | 2.96 |  |  | 
Cc1cc(Oc2ccc(Cl)c(C(C)(C)C)c2)c(Cl)cc1/N=C/N(C)C1CC1 [Example 24] | 3.24 |  |  | 
CCCN(C)/C=N/c1cc(C)c(Oc2ccc(Cl)c(C(C)C)c2)cc1C [Example 27] |  | 3 | ≥ 70 | pest or weed control at 1000 ppm [3]: ≥ 70%; pest or weed control at 100 ppm (Podosphaera leucotricha): ≥ 70%; pest or weed control at 100 ppm (Sphaerotheca fuliginea): ≥ 70%
CCN(C)/C(S)=N/c1cc(C)c(Oc2ccc(Cl)c(C(C)C)c2)cc1C [Example 29] |  | 4.81 | ≥ 70 | pest or weed control at 100 ppm (Podosphaera leucotricha): ≥ 70%; pest or weed control at 100 ppm (Sphaerotheca fuliginea): ≥ 70%
Cc1cc(Oc2ccc(Br)c(C(C)C)c2)c(Cl)cc1/N=C/N(C)C1CC1 [Example 31] | 3.98 |  |  | 
Cc1cc(Oc2ccc(Br)c(C(C)C)c2)c(Cl)cc1/N=C/N(C)C(C)C [Example 33] |  | 3.21 |  | 
CCCN(C)/C=N/c1cc(Cl)c(Oc2ccc(Br)c(C(C)C)c2)cc1C [Example 34] |  | 2.91 | ≥ 70 | pest or weed control at 1000 ppm [3]: ≥ 70%; pest or weed control at 100 ppm (Podosphaera leucotricha): ≥ 70%; pest or weed control at 100 ppm (Sphaerotheca fuliginea): ≥ 70%
CCN(C)/C(S)=N/c1cc(C)c(Oc2ccc(Cl)c(C(C)(C)C)c2)cc1C [Example 35] | 5.44 |  | ≥ 70 | 
Cc1cc(Oc2ccc(Cl)c(C(C)(C)C)c2)c(Cl)cc1/N=C/N1CCCCC1 [Example 36] | 3.11 |  |  | 
CCc1cc(Oc2cc(C)c(/N=C/N3CCCCC3)cc2Cl)ccc1Cl [Example 37] | 2.74 |  |  | 
CCN(C)/C=N/c1cc(C#N)c(Oc2ccc(Cl)c(C(C)C)c2)cc1C [Example 38] |  | 2.45 | ≥ 70 | pest or weed control at 1000 ppm [3]: ≥ 70%

SMILES | logPa [1] | chromatographic logP [1] | pest or weed control at 1000 ppm [2] [%] | further results
Cc1cc(/N=C/N(C)C(C)C)c(Cl)cc1Oc1ccc(Cl)c(C(C)(C)C)c1 [Example 39] |  | 3.01 | ≥ 70 | pest or weed control at 1000 ppm [3]: ≥ 70%; pest or weed control at 100 ppm (Sphaerotheca fuliginea): ≥ 70%
CCC(C)N(C)/C=N/c1cc(C)c(Oc2ccc(Cl)c(C(C)(C)C)c2)cc1C (stereo not drawn) [Example 40] |  | 3.2 | ≥ 70 | pest or weed control at 100 ppm (Sphaerotheca fuliginea): ≥ 70%
CCC(C)N(C)/C=N/c1cc(C)c(Oc2ccc(Cl)c(C(C)C)c2)cc1C (stereo not drawn) [Example 41] |  | 2.98 | ≥ 70 | pest or weed control at 100 ppm (Sphaerotheca fuliginea): ≥ 70%
CCC(C)N(C)/C=N/c1cc(Cl)c(Oc2ccc(Cl)c(C(C)C)c2)cc1C (stereo not drawn) [Example 42] |  | 2.9 | ≥ 70 | 
CCC(C)N(C)/C=N/c1cc(Cl)c(Oc2ccc(Cl)c(C(C)(C)C)c2)cc1C (stereo not drawn) [Example 43] |  | 3.19 |  | 
Cc1cc(Oc2cc(C)c(/N=C/N(C)C(C)C)cc2C)ccc1F [Example 44] |  | 2.29 | ≥ 70 | pest or weed control at 100 ppm (Sphaerotheca fuliginea): ≥ 70%
Cc1cc(Oc2ccc(Cl)c(C(C)(C)C)c2)c(C)cc1/N=C/N1CCCCC1 [Example 45] | 3.02 |  |  | 
CCN(C)/C=N/c1cc(C)c(Oc2ccc(Cl)c(CC(C)(C)C)c2)cc1C [Example 46] | 3.11 |  |  | 
CCN(C)/C=N/c1cc(C)c(Oc2ccc(Cl)c(C[Si](C)(C)C)c2)cc1C [Example 47] | 3.01 |  |  | 
CCN(C)/C=N/c1cc(C)c(Oc2ccc(Cl)c(C3CCCCC3)c2)cc1C [Example 48] | 3.18 |  |  | 
CCN(C)/C=N/c1cc(C)c(Oc2ccc(Cl)c(C)c2)cc1Cl [Example 49] |  | 2.39 |  | 
Cc1cc(Oc2cc(Cl)c(/N=C/N(C)C(C)C)cc2C)ccc1Cl [Example 50] |  | 2.48 |  | 
Cc1cc(Oc2cc(Cl)c(/N=C/N3CCCCC3)cc2C)ccc1Cl [Example 51] | 2.58 |  |  | 
Cc1cc(/N=C/N2CCCCC2)c(Cl)cc1Oc1ccc(Cl)c(C(C)(C)C)c1 [Example 53] | 3.25 |  |  | 
CCCCc1cc(Oc2cc(C)c(/N=C/N(C)CC)cc2C)ccc1Cl [Example 55] |  | 2.95 | ≥ 70 | 
CCN(C)/C=N/c1cc(C)c(Oc2ccc(Cl)c(CC(C)C)c2)cc1C [Example 56] |  | 2.92 | ≥ 70 | 
CCN(C)/C=N/c1cc(C)c(Oc2ccc(Cl)c(C(C)(C)OC)c2)cc1C [Example 57] | 2.26 |  |  | 
CCN(C)/C=N/c1cc(C)c(Oc2ccc(Cl)c(C(C)C)c2)cc1Cl [Example 60] |  | 2.78 |  | 
Cc1cc(Oc2ccc(Cl)c(C(C)(C)C)c2)c(C)cc1/N=C/N1CCC(F)(F)CC1 [Example 61] | 3.25 |  |  | 
CCN(C)/C=N/c1cc(Br)c(Oc2ccc(Cl)c(C(C)(C)C)c2)cc1C [Example 63] |  | 2.67 |  | 
CCN(C)/C=N/c1cc(C)c(Oc2ccc(Cl)c(C3CCCC3)c2)cc1C [Example 64] | 3.28 |  |  | 
Cc1cc(Oc2ccc(Cl)c(CC(C)(C)C)c2)c(C)cc1/N=C/N1CCCCC1 [Example 65] | 3.19 |  |  | 
